This is an account of results in BindingDB's records for PubMed 34043359 (China Pharmaceutical University, 2021).

The structures appear in SMILES notation.

The assay addresses Signal transducer and activator of transcription 3 (Homo sapiens, UniProt P40763). Nature of the assay: Binding affinity to recombinant GST tagged STAT3 (unknown origin) assessed as dissociation constant.

Signal transducer and activator of transcription 3, sequence (P40763 whole entry): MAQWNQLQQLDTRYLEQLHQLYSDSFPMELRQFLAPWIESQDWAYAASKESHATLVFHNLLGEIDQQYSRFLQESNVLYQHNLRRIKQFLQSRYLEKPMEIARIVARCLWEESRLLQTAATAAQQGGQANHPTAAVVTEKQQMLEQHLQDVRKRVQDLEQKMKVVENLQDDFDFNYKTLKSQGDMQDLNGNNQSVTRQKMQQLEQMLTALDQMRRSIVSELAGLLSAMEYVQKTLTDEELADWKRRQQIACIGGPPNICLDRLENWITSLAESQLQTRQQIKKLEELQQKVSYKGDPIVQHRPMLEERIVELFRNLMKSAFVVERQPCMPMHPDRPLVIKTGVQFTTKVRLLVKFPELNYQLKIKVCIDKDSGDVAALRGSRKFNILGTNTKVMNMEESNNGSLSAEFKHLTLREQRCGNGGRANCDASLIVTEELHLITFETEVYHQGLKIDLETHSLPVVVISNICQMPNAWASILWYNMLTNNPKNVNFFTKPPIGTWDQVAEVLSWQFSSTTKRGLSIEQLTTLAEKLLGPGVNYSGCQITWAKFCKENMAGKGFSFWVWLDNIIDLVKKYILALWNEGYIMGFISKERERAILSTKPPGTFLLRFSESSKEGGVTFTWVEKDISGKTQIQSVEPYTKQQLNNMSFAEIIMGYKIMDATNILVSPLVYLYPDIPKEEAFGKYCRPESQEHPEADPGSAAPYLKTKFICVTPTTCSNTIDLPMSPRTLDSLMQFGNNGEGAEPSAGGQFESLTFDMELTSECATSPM

Consider `COc1cc(/C=C/c2ccc(OCCCCCCC(=O)NO)cc2)cc(OC)c1`, for which the koff was found to be 0.0152 s⁻¹.
